Values quoted from earlier work, collected in article PMC3259182 (European Journal of Medicinal Chemistry, 2011).

Columns and labels:
[1] = system: NV replicon-harboring cells (HG23 cells); settings: NV genome levels, 24 hr post-treatment, ref [4]
HG23 cells = settings: median toxic dose at 48 hr of treatment, ref [4]

SMILES | ED50 [1] [µM] | TD50 (HG23 cells) [µM]
Cl.O=S1(=O)N(CCN2CCOCC2)CCN1Cc1cccc(Oc2ccccc2)c1 [Compound 7c, 2-(2-Morpholinoethyl)-5-(3-phenoxybenzyl)-1,2,5-thiadiazolidine 1,1-dioxide] | 5.2 | 95.4
O=S1(=O)N(CCN2CCCCC2)CCN1Cc1cccc(Oc2ccccc2)c1 [Compound 7d, 2-(3-Phenoxybenzyl)-5-(2-(piperidin-1-yl)ethyl)-1,2,5-thiadiazolidine1,1-dioxide] | 4.7 | 12.3
